From patent publication US11998532B1 (priority 2023, dated 2024)
Converted amounts (≈) assume the structure as drawn.

System: multidrug-resistant (MDR) strains of Mycobacterium tuberculosis
Experiment: microbe, parasite or virus in culture
Assay type: cell-based
Settings: 192 h, read-out: MIC MDR-TB

SMILES | MIC [µg/mL]
COc1ccc(Cl)cc1-n1ncc(-c2nnc(-c3ccc(F)cc3)o2)c1C [Compound 7b, 2-(1-(5-Chloro-2-methoxyphenyl)-5-methyl-1H-pyrazol-4-yl)-5-(4-fluorophenyl)-1,3,4-oxadiazole] | 8 (≈ 20.8 µM)
COc1ccc(Cl)cc1-n1ncc(-c2nnc(-c3cc(Cl)cc(Cl)c3)o2)c1C [Compound 7h, 2-(1-(5-Chloro-2-methoxyphenyl)-5-methyl-1H-pyrazol-4-yl)-5-(3,5-dichlorophenyl)-1,3,4-oxadiazole] | 16 (≈ 36.7 µM)
COc1ccc(Cl)cc1-n1ncc(-c2nnc(-c3ccc(C)c([N+](=O)[O-])c3)o2)c1C [Compound 7j, 2-(1-(5-Chloro-2-methoxyphenyl)-5-methyl-1H-pyrazol-4-yl)-5-(4-methyl-3-nitrophenyl)-1,3,4-oxadiazole] | 64 (≈ 150 µM)
COc1ccc(Cl)cc1-n1ncc(-c2nnc(-c3ccc(Cl)c(Cl)c3)o2)c1C [Compound 7i, 2-(1-(5-Chloro-2-methoxyphenyl)-5-methyl-1H-pyrazol-4-yl)-5-(3,4-dichlorophenyl)-1,3,4-oxadiazole] | 32 (≈ 73.4 µM)
COc1ccc(Cl)cc1-n1ncc(-c2nnc(-c3cccc(F)c3)o2)c1C [Compound 7g, 2-(1-(5-Chloro-2-methoxyphenyl)-5-methyl-1H-pyrazol-4-yl)-5-(3-fluorophenyl)-1,3,4-oxadiazole] | 32 (≈ 83.2 µM)
COc1ccc(Cl)cc1-n1ncc(-c2nnc(-c3ccc(C)c(Br)c3)o2)c1C [Compound 7c, 2-(3-Bromo-4-methylphenyl)-5-(1-(5-chloro-2-methoxyphenyl)-5-methyl-1H-pyrazol-4-yl)-1,3,4-oxadiazole] | 64 (≈ 139 µM)
COc1ccc(Cl)cc1-n1ncc(-c2nnc(-c3ccccc3)o2)c1C [Compound 7d, 2-(1-(5-Chloro-2-methoxyphenyl)-5-methyl-1H-pyrazol-4-yl)-5-phenyl-1,3,4-oxadiazole] | 32 (≈ 87.2 µM)
COc1ccc(Cl)cc1-n1ncc(-c2nnc(-c3ccc(Br)cc3)o2)c1C [Compound 7e, 2-(4-Bromophenyl)-5-(1-(5-chloro-2-methoxyphenyl)-5-methyl-1H-pyrazol-4-yl)-1,3,4-oxadiazole] | 16 (≈ 35.9 µM)
COc1ccc(Cl)cc1-n1ncc(-c2nnc(-c3ccc(Br)c(C)c3)o2)c1C [Compound 7f, 2-(4-Bromo-3-methylphenyl)-5-(1-(5-chloro-2-methoxyphenyl)-5-methyl-1H-pyrazol-4-yl)-1,3,4-oxadiazole] | 64 (≈ 139 µM)
COc1ccc(Cl)cc1-n1ncc(-c2nnc(-c3ccc(Cl)cc3)o2)c1C [Compound 7a, 2-(1-(5-Chloro-2-methoxyphenyl)-5-methyl-1H-pyrazol-4-yl)-5-(4-chlorophenyl)-1,3,4-oxadiazole] | 16 (≈ 39.9 µM)
